Legend:
[1] = target: T1, EIF2AK3 (PERK) catalytic domain (amino acids 536-1116) (Homo sapiens, UniProt Q9NZJ5); assay: PERK in vitro activity assay (isolated), TR-FRET kinase assay; format: biochemical; conditions: isolated PERK enzyme, 1.5 μM ATP; read-out: Biochemical IC50
T1 construct: EIF2AK3 (PERK) catalytic domain (amino acids 536-1116)
T1 sequence (Q9NZJ5 536-1116): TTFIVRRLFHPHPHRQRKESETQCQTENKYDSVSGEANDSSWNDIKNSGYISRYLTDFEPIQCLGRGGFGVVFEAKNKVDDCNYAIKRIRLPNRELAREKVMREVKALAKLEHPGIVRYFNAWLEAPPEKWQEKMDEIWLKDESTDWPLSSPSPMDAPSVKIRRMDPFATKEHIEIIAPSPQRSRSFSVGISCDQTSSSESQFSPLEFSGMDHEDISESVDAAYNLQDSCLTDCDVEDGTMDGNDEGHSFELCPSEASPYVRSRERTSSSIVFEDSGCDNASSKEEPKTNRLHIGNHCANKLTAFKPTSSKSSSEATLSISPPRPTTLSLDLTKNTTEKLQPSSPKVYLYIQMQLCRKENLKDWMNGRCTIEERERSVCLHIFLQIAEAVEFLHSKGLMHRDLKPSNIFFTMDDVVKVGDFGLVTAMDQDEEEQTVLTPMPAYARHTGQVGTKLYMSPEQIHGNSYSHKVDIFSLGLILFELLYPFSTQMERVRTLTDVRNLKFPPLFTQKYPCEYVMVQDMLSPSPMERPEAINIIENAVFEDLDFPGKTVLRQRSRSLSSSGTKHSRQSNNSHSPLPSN
Procedure, shortened: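 Human PERK catalytic domain (aa 536-1116) phosphorylating 100-200 nM GFP-eIF2a in 50 mM HEPES pH 7.5, 10 mM MgCl2, 1 mM EGTA, 0.01% Brij-35; enzyme-started, 45 min at room temperature. Stopped with 10 mM EDTA, 2 nM Tb-anti-phospho-eIF2a added for 90 min; IC50 from TR-FRET ratios by 4-parameter logistic fit.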

[2] = test system: GFP-eIF2α in HEK293 cells; assay: PERK cellular assay, TR-FRET in HEK293-EGFP-eIF2a cells after tunicamycin-induced ER stress; format: cell-based; conditions: HEK293-EGFP-eIF2a cells, tunicamycin 2 hours; read-out: Cellular eIF2α IC50
Procedure, shortened: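 HEK293 cells stably expressing GFP-eIF2α, plated 5000 cells/well overnight, pretreated with inhibitors 30 min at 37 °C, then ER stress induced with tunicamycin […] for 2 h.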

Compound | IC50 [1] [nM] | IC50 [2] [nM]
Cc1nc(N)c2c(-c3ccc(NC(=O)C(O)c4cc(F)cc(F)c4)cc3F)cn(C)c2n1 (stereo not shown) [Example 84, N-(4-(4-amino-2,7-dimethyl-7H-pyrrolo[2,3-d]pyrimidin-5-yl)-3-fluorophenyl)-2-(3,5-difluorophenyl)-2-hydroxyacetamide] | 51 to 100 | 101 to 250
Cc1nc(N)c2c(-c3ccc(NC(=O)C(O)c4cc(F)cc(C(F)(F)F)c4)cc3F)cn(C)c2n1 (stereo not shown) [Example 88, N-(4-(4-amino-2,7-dimethyl-7H-pyrrolo[2,3-d]pyrimidin-5-yl)-3-fluorophenyl)-2-(3-fluoro-5-(trifluoromethyl)phenyl)-2-hydroxyacetamide] | 26 to 50 | 251 to 500
Cc1nc(N)c2c(-c3ccc(NC(=O)C(O)c4cccc(F)c4)c(F)c3)cn(C)c2n1 (stereo not shown) [Example 89, N-(4-(4-amino-2,7-dimethyl-7H-pyrrolo[2,3-d]pyrimidin-5-yl)-2-fluorophenyl)-2-(3-fluorophenyl)-2-hydroxyacetamide] | 251 to 500 | 2000 to 3000
Cc1nc(N)c2c(-c3ccc(NC(=O)C(O)c4cccc(F)c4)cc3Cl)cn(C)c2n1 (stereo not shown) [Example 91, N-(4-(4-amino-2,7-dimethyl-7H-pyrrolo[2,3-d]pyrimidin-5-yl)-3-chlorophenyl)-2-(3-fluorophenyl)-2-hydroxyacetamide] | 101 to 250 | 501 to 1000
Cc1nc(N)c2c(-c3ccc(NC(=O)C(O)c4ccccc4C)cc3Cl)cn(C)c2n1 (stereo not shown) [Example 93, N-(4-(4-amino-2,7-dimethyl-7H-pyrrolo[2,3-d]pyrimidin-5-yl)-3-chlorophenyl)-2-hydroxy-2-(o-tolyl)acetamide] | 501 to 1000 | 2000 to 3000
Cc1cccc(C(O)C(=O)Nc2ccc(-c3cn(C)c4nc(C)nc(N)c34)c(Cl)c2)c1 (stereo not shown) [Example 95, N-(4-(4-amino-2,7-dimethyl-7H-pyrrolo[2,3-d]pyrimidin-5-yl)-3-chlorophenyl)-2-hydroxy-2-(m-tolyl)acetamide] | 51 to 100 | 251 to 500
Cc1cccc(C(O)C(=O)Nc2ccc(-c3cn(C)c4nc(C)nc(N)c34)c(Cl)c2)c1 (stereo not shown) [Example 96, N-(4-(4-amino-2,7-dimethyl-7H-pyrrolo[2,3-d]pyrimidin-5-yl)-3-chlorophenyl)-2-hydroxy-2-(m-tolyl)acetamide] | 1 to 25 | 1 to 25
CCc1cccc(C(O)C(=O)Nc2ccc(-c3cn(C)c4nc(C)nc(N)c34)c(Cl)c2)c1 (stereo not shown) [Example 97, N-(4-(4-amino-2,7-dimethyl-7H-pyrrolo[2,3-d]pyrimidin-5-yl)-3-chlorophenyl)-2-(3-ethylphenyl)-2-hydroxyacetamide] | 1 to 25 | 1 to 25
CCc1cccc(C(O)C(=O)Nc2ccc(-c3cn(C)c4nc(C)nc(N)c34)c(Cl)c2)c1 (stereo not shown) [Example 98, N-(4-(4-amino-2,7-dimethyl-7H-pyrrolo[2,3-d]pyrimidin-5-yl)-3-chlorophenyl)-2-(3-ethylphenyl)-2-hydroxyacetamide] | 51 to 100 | 251 to 500
Cc1nc(N)c2c(-c3ccc(NC(=O)C(O)c4cccc(Cl)c4)cc3Cl)cn(C)c2n1 (stereo not shown) [Example 99, N-(4-(4-amino-2,7-dimethyl-7H-pyrrolo[2,3-d]pyrimidin-5-yl)-3-chlorophenyl)-2-(3-chlorophenyl)-2-hydroxyacetamide] | 1 to 25 | 1 to 25
Cc1nc(N)c2c(-c3ccc(NC(=O)C(O)c4cccc(Cl)c4)cc3Cl)cn(C)c2n1 (stereo not shown) [Example 100, N-(4-(4-amino-2,7-dimethyl-7H-pyrrolo[2,3-d]pyrimidin-5-yl)-3-chlorophenyl)-2-(3-chlorophenyl)-2-hydroxyacetamide] | 26 to 50 | 101 to 250
Cc1nc(N)c2c(-c3ccc(NC(=O)C(O)c4cccc(C(F)(F)F)c4)cc3Cl)cn(C)c2n1 (stereo not shown) [Example 101, N-(4-(4-amino-2,7-dimethyl-7H-pyrrolo[2,3-d]pyrimidin-5-yl)-3-chlorophenyl)-2-hydroxy-2-(3-(trifluoromethyl)phenyl)acetamide] | 1 to 25 | 1 to 25
Cc1nc(N)c2c(-c3ccc(NC(=O)C(O)c4cccc(C(F)(F)F)c4)cc3Cl)cn(C)c2n1 (stereo not shown) [Example 102, N-(4-(4-amino-2,7-dimethyl-7H-pyrrolo[2,3-d]pyrimidin-5-yl)-3-chlorophenyl)-2-hydroxy-2-(3-(trifluoromethyl)phenyl)acetamide] | 101 to 250 | 101 to 250
COc1cc(NC(=O)C(O)c2cccc(F)c2)ccc1-c1cn(C)c2ncnc(N)c12 (stereo not shown) [Example 103, N-(4-(4-amino-7-methyl-7H-pyrrolo[2,3-d]pyrimidin-5-yl)-3-methoxyphenyl)-2-(3-fluorophenyl)-2-hydroxyacetamide] | 101 to 250 | 2000 to 3000
COc1cc(NC(=O)C(O)c2cccc(F)c2)ccc1-c1cn(C)c2ncnc(N)c12 (stereo not shown) [Example 104, N-(4-(4-amino-7-methyl-7H-pyrrolo[2,3-d]pyrimidin-5-yl)-3-methoxyphenyl)-2-(3-fluorophenyl)-2-hydroxyacetamide] | 26 to 50 | 101 to 250
Cc1nc(N)c2c(-c3ccc(NC(=O)C(O)c4cccc(C(F)(F)F)c4)c(F)c3F)cn(C)c2n1 (stereo not shown) [Example 107, N-(4-(4-amino-2,7-dimethyl-7H-pyrrolo[2,3-d]pyrimidin-5-yl)-2,3-difluorophenyl)-2-hydroxy-2-(3-(trifluoromethyl)phenyl)acetamide] | 1 to 25 | 1 to 25
Cc1nc(N)c2c(-c3ccc(NC(=O)C(O)c4cccc(C(F)(F)F)c4)c(F)c3F)cn(C)c2n1 (stereo not shown) [Example 108, N-(4-(4-amino-2,7-dimethyl-7H-pyrrolo[2,3-d]pyrimidin-5-yl)-2,3-difluorophenyl)-2-hydroxy-2-(3-(trifluoromethyl)phenyl)acetamide] | 101 to 250 | 101 to 250
Cc1nc(N)c2c(-c3ccc(NC(=O)C(O)c4cccc(Cl)c4)c(F)c3F)cn(C)c2n1 (stereo not shown) [Example 111, N-(4-(4-amino-2,7-dimethyl-7H-pyrrolo[2,3-d]pyrimidin-5-yl)-2,3-difluorophenyl)-2-(3-chlorophenyl)-2-hydroxyacetamide] | 1 to 25 | 1 to 25

Second part, led by results:

IC50 [1] [nM] | Compound | IC50 [2] [nM]
1 to 25 | Cc1nc(N)c2c(-c3ccc(NC(=O)C(O)c4cccc(Cl)c4)cc3F)cn(C)c2n1 (stereo not shown) [Example 82, N-(4-(4-amino-2,7-dimethyl-7H-pyrrolo[2,3-d]pyrimidin-5-yl)-3-fluorophenyl)-2-(3-chlorophenyl)-2-hydroxyacetamide] | 1 to 25
1 to 25 | Cc1nc(N)c2c(-c3ccc(NC(=O)C(O)c4cc(F)cc(F)c4)cc3F)cn(C)c2n1 (stereo not shown) [Example 83, N-(4-(4-amino-2,7-dimethyl-7H-pyrrolo[2,3-d]pyrimidin-5-yl)-3-fluorophenyl)-2-(3,5-difluorophenyl)-2-hydroxyacetamide] | 1 to 25
1 to 25 | Cc1cc(F)cc(C(O)C(=O)Nc2ccc(-c3cn(C)c4nc(C)nc(N)c34)c(F)c2)c1 (stereo not shown) [Example 85, N-(4-(4-amino-2,7-dimethyl-7H-pyrrolo[2,3-d]pyrimidin-5-yl)-3-fluorophenyl)-2-(3-fluoro-5-methylphenyl)-2-hydroxyacetamide] | 1 to 25
1 to 25 | Cc1cc(F)cc(C(O)C(=O)Nc2ccc(-c3cn(C)c4nc(C)nc(N)c34)c(F)c2)c1 (stereo not shown) [Example 86, N-(4-(4-amino-2,7-dimethyl-7H-pyrrolo[2,3-d]pyrimidin-5-yl)-3-fluorophenyl)-2-(3-fluoro-5-methylphenyl)-2-hydroxyacetamide] | 51 to 100
1 to 25 | Cc1nc(N)c2c(-c3ccc(NC(=O)C(O)c4cc(F)cc(C(F)(F)F)c4)cc3F)cn(C)c2n1 (stereo not shown) [Example 87, N-(4-(4-amino-2,7-dimethyl-7H-pyrrolo[2,3-d]pyrimidin-5-yl)-3-fluorophenyl)-2-(3-fluoro-5-(trifluoromethyl)phenyl)-2-hydroxyacetamide] | 51 to 100
1 to 25 | Cc1nc(N)c2c(-c3ccc(NC(=O)C(O)c4cccc(F)c4)c(F)c3)cn(C)c2n1 (stereo not shown) [Example 90, N-(4-(4-amino-2,7-dimethyl-7H-pyrrolo[2,3-d]pyrimidin-5-yl)-2-fluorophenyl)-2-(3-fluorophenyl)-2-hydroxyacetamide] | 26 to 50
1 to 25 | Cc1nc(N)c2c(-c3ccc(NC(=O)C(O)c4cccc(F)c4)cc3Cl)cn(C)c2n1 (stereo not shown) [Example 92, N-(4-(4-amino-2,7-dimethyl-7H-pyrrolo[2,3-d]pyrimidin-5-yl)-3-chlorophenyl)-2-(3-fluorophenyl)-2-hydroxyacetamide] | 51 to 100
1 to 25 | Cc1nc(N)c2c(-c3ccc(NC(=O)C(O)c4ccccc4C)cc3Cl)cn(C)c2n1 (stereo not shown) [Example 94, N-(4-(4-amino-2,7-dimethyl-7H-pyrrolo[2,3-d]pyrimidin-5-yl)-3-chlorophenyl)-2-hydroxy-2-(o-tolyl)acetamide] | 51 to 100
